# Tests used:
# DNA polymerase beta = DNA polymerase beta (Rattus norvegicus, UniProt P06766); assay: Inhibition of rat DNA polymerase beta assessed as [3H]TTP incorporation after 60 mins by scintillation counting in presence of bovine serum albumin
# [1] = target: DNA polymerase beta (Rattus norvegicus) (UniProt P06766); assay: Inhibition of rat DNA polymerase beta assessed as [3H]TTP incorporation at 10 ug/mL after 60 mins by scintillation counting
# [2] = target: DNA polymerase beta (Rattus norvegicus) (UniProt P06766); assay: Inhibition of rat DNA polymerase beta assessed as [3H]TTP incorporation at 50 ug/mL after 60 mins by scintillation counting
IC50 (DNA polymerase beta),inhibition [1],inhibition [2],Structure (SMILES)
5.8 µM,50%,79%,Oc1cc(O)cc(CCCCCCCCCCCCCCc2cc(O)cc(O)c2)c1 [BISNORSTRIATOL]
6.5 µM,44%,92%,Oc1cc(O)cc(CCCCCC/C=C\CCCCCCc2cc(O)cc(O)c2)c1
7.5 µM,51%,98%,Oc1cc(O)cc(CCC/C=C\CCCCCCCCCc2cc(O)cc(O)c2)c1
